Assay [1] concerns the target PMN phosphodiesterase (PDE IV). Briefly: Assay of PMN phosphodiesterase. It counts as biochemical. To be noted: particulate fraction from human PMN, treated with sodium vanadate/glutathione. How it is done:
4. Assay of PMN Phosphodiesterase
This was performed as a particulate fraction from human PMN essentially as described by Souness and Scott (Biochem. J. 291, 389-395, 1993). Particulate fractions were treated with sodium vanadate/glutathione as described by the authors to express the descrete stereospecific site on the phosphodiesterase enzyme.

Assay [2] relates to human PMN (neutrophils). Briefly: Inhibition of FMLP-stimulated production of superoxide radical anions. It counts as cell-based. The settings on record: Neutrophil, read-out: IC50 O2^−. How it is done: 1. Preparation of Human PMN
Blood was taken from healthy subjects by venous puncture and neutrophils were purified by dextran sedimentation and resuspended in the buffered medium.
2. Inhibition of FMLP-stimulated Production of Superoxide Racidal Anions.
Neutrophils (2.5×10^5 ml^−1) were mixed with cytochrome C (1.2 mg/ml) in the wells of a microtitre plate. Compounds according to the invention were added in dimethyl sulphoxide (DMSO). Compound concentration ranged from 2.5 nM to 10 μM, the DMSO concentration was 0.1% v/v in all wells. After addition of cytochalasin b (5 μg×ml^−1) the plate was incubated for 5 min at 37° C. Neutrophils were then stimulated by addition of 4×10^−8 M FMLP and superoxide generation measured as superoxide dismutase inhibitable reduction of cytochrome C by monitoring the OD550 in a microtitre plate spectrophotometer, e.g. a thermomax microtitre plate spectrophotometer. Initial rates were calculated using a kinetic calculation programme such as a softmax programme. Blank wells contained 200 units of superoxide dismutase.
The inhibition of superoxide production was calculated as follows: [formula]
Rx=Rate of the well containing the compound according to the invention.
Ro=Rate in the control well.
Rb=Rate in the superoxide dismutase containing blank well.

This note sets out measurements from US6610687B1, “Benzofuranylsulfonates” (Bayer Aktiengesellschaft, priority 1999, dated 2003).

In general, IC50 refers to the concentration that inhibits the measured activity by half. On to `CC(=O)Nc1ccc(S(=O)(=O)Oc2ccc3c(NC(N)=O)c(C(=O)c4ccc(Cl)cc4)oc3c2)cc1` [Example 13], for which the 50% inhibitory concentration (IC50) in assay [1] amounted to 21 nM; in assay [2], 65 nM.

Regarding `NC(=O)Nc1c(C(=O)c2ccc(Cl)cc2Cl)oc2cc(OS(=O)(=O)c3ccc(-c4ccccn4)s3)ccc12` [Example 21], the IC50 in assay [1] worked out at 40 nM; in assay [2] it was 20 nM.

Consider `Cc1nn(C)c(Cl)c1S(=O)(=O)Oc1ccc2c(NC(N)=O)c(C(=O)c3ccc(F)cc3F)oc2c1` [Example 24], for which the concentration for half-maximal inhibition (IC50) in assay [1] was 130 nM; in assay [2], 60 nM.

With `Cc1ccc(C(=O)c2oc3cc(OS(=O)(=O)c4cn(C)cn4)ccc3c2NC(N)=O)c(C)c1` [Example 36], the IC50 in assay [1] worked out at 1 nM; in assay [2], 7 nM.

As to `CN(C)S(=O)(=O)Oc1ccc2c(NC(N)=O)c(C(=O)c3cc(Cl)ccc3Cl)oc2c1` [Example 46], the IC50 in assay [1] was 6 nM; in assay [2], 35 nM.

Regarding `NC(=O)Nc1c(C(=O)c2ccc(Cl)cc2Cl)oc2cc(OS(=O)(=O)Cc3ccc(Cl)nc3)ccc12` [Example 47], the results for the IC50 in assay [1] and in assay [2] were 33 nM and 20 nM, respectively.

Turning to `NC(=O)Nc1c(C(=O)c2ccc(Cl)cc2Cl)oc2cc(OS(=O)(=O)c3cccc4cccnc34)ccc12` [Example 49], the IC50 in assay [1] and in assay [2] was 1 nM each time.
